Measured values taken from patent publication US11242337B2, “Compounds useful for treating gastrointestinal tract disorders” (Ardelyx, Inc., priority 2017, dated 2022).

Legend:
NHE3 [1] = target: T1, NHE3 (Homo sapiens, UniProt P48764); test: Cell-based assay of NHE-3 activity (pre-incubation inhibition), human; settings: human Preincubation; for pIC50 / IC50: 0-30 μM test compound
T1 construct: expressed in transfected cells
T1 sequence (P48764 26-834): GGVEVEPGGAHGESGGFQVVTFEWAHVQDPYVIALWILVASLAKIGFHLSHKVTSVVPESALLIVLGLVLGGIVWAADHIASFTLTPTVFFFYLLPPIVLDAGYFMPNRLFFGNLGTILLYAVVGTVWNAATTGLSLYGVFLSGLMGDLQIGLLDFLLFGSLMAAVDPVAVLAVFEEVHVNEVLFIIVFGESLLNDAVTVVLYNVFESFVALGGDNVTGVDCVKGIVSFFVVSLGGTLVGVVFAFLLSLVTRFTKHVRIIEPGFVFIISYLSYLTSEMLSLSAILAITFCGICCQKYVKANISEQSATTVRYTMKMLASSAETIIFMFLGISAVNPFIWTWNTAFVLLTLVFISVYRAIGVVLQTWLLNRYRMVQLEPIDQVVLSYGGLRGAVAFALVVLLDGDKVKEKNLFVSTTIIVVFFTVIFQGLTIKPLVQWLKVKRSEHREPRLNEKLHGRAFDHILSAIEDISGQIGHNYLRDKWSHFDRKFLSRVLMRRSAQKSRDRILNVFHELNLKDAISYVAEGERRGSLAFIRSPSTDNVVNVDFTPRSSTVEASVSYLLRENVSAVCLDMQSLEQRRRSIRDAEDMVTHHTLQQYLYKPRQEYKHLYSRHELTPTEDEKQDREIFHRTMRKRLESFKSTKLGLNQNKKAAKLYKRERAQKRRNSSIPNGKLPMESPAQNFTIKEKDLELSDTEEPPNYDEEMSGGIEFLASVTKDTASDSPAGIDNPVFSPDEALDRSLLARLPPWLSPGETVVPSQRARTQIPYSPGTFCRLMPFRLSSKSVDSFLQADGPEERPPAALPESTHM
T1 sequence (Q99653 2-195 partner limits assumed): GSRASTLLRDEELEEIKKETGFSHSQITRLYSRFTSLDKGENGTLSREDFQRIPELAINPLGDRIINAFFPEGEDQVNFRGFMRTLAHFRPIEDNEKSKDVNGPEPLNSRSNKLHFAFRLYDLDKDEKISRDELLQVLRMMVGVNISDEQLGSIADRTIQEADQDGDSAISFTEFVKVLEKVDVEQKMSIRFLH
Method in brief: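 Activity read as initial rate of BCECF fluorescence ratio change per minute (ex 439/505, em 538 nm) following NH4Cl prepulse acid loading. Compound (0–30 μM) present during 10 min Na+-free acidification at room temperature; cells were PS120 fibroblasts stably co-expressing human NHE3 and NHERF2.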

NHE3 [2] = target: T1, NHE3; test: Cell-based assay of NHE-3 activity (persistent inhibition), human; settings: human Persistence, 60 min incubation then washout
Method in brief: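 Persistent inhibition: compound (0-30 μM, 60 min, RT, NaCl-HEPES pH 7.4) removed before assay. Human NHE3/NHERF2 PS120 cells were then BCECF-loaded during NH4Cl pulse (30 min, 37 °C), acidified in Na+-free buffer, and Na+ added 10 min after washout; antiport measured as initial fluorescence-ratio change per minute.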

Row | Compound | % inhibition (NHE3 [1]) | pIC50 (NHE3 [1]) | % inhibition (NHE3 [2]) | pIC50 (NHE3 [2]) | IC50 (NHE3 [1]) | IC50 (NHE3 [2])
1 | N#Cc1cc(Cl)cc2c1C[C@H](N1CCC[C@@H](N)C1)[C@H]2Oc1ccc(S(=O)(=O)NCCOCCOCCNC(=O)NCCCCNC(=O)NCCOCCOCCNS(=O)(=O)c2ccc(O[C@H]3c4cc(Cl)cc(C#N)c4C[C@@H]3N3CCC[C@@H](N)C3)c(F)c2)cc1F [Example 38] | A (NHE3 < 40%) | A (NHE3 pIC50 < 6) | A (NHE3 < 40%) | A (NHE3 pIC50 < 6) | – | –
2 | Cc1cc(S(=O)(=O)NCCOCCOCCNC(=O)NCCCCNC(=O)NCCOCCOCCNS(=O)(=O)c2ccc(O[C@H]3c4cc(Cl)cc(C#N)c4C[C@@H]3N3CCC[C@@H](N(C)C)C3)c(C)c2)ccc1O[C@H]1c2cc(Cl)cc(C#N)c2C[C@@H]1N1CCC[C@@H](N(C)C)C1 [Example 39] | A (NHE3 < 40%) | C (NHE3 pIC50 > 7) | A (NHE3 < 40%) | C (NHE3 pIC50 > 7) | – | –
3 | CN(C)[C@@H]1CCCN([C@H]2Cc3c(C#N)cc(Cl)cc3[C@@H]2Oc2ccc(S(=O)(=O)NCCOCCOCCNC(=O)NCCCCNC(=O)NCCOCCOCCNS(=O)(=O)c3ccc(O[C@H]4c5cc(Cl)cc(C#N)c5C[C@@H]4N4CCC[C@@H](N(C)C)C4)c(F)c3)cc2F)C1 [Example 40, 3-[2-(2-[2-[(4-[[(1S,2S)-6-Chloro-4-cyano-2-[(3R)-3-(dimethylamino)piperidin-1-yl]-2,3-dihydro-1H-inden-1-yl]oxy]-3-fluorobenzene)sulfonamido]ethoxy]ethoxy)ethyl]-1-[4-([[2-(2-[2-[(4-[[(1S,2S)-6-chloro-4-cyano-2-[(3R)-3-(dimethylamino)piperidin-1-yl]-2,3-dihydro-1H-inden-1-yl]oxy]-3-fluorobenzene)sulfonamido]ethoxy]ethoxy)ethyl]carbamoyl]amino)butyl]urea; bis(trifluoroacetic acid)] | A (NHE3 < 40%) | – | A (NHE3 < 40%) | – | – | –
4 | Cc1cc(S(=O)(=O)N2CC[C@H](COCCOCCNC(=O)NCCCCNC(=O)NCCOCCOC[C@H]3CCN(S(=O)(=O)c4ccc(O[C@H]5c6cc(Cl)cc(Cl)c6C[C@@H]5N(C)C)c(C)c4)C3)C2)ccc1O[C@H]1c2cc(Cl)cc(Cl)c2C[C@@H]1N(C)C [Example 44, 3-[2-(2-[[(3S)-1-[(4-[[(1S,2S)-4,6-dichloro-2-(dimethylamino)-2,3-dihydro-1H-inden-1-yl]oxy]-3-methylbenzene)sulfonyl]pyrrolidin-3-yl]methoxy]ethoxy)ethyl]-1-[4-([[2-(2-[[(3S)-1-[(4-[[(1S,2S)-4,6-dichloro-2-(dimethylamino)-2,3-dihydro-1H-inden-1-yl]oxy]-3-methylbenzene)sulfonyl]pyrrolidin-3-yl]methoxy]ethoxy)ethyl]carbamoyl]amino)butyl]urea; bis(trifluoroacetic acid)] | C (>70%) | C (NHE3 pIC50 > 7) | C (>70%) | B (NHE3 pIC50 6-7) | – | –
5 | Cc1cc(S(=O)(=O)N2CC[C@H](COCCOCCNC(=O)NCCCCNC(=O)NCCOCCOC[C@H]3CCN(S(=O)(=O)c4ccc(O[C@H]5c6cc(Cl)cc(C#N)c6C[C@@H]5N(C)C)c(C)c4)C3)C2)ccc1O[C@H]1c2cc(Cl)cc(C#N)c2C[C@@H]1N(C)C [Example 46, 3-[2-(2-[[(3S)-1-[(4-[[(1S,2S)-6-Chloro-4-cyano-2-(dimethylamino)-2,3-dihydro-1H-inden-1-yl]oxy]-3-methylbenzene)sulfonyl]pyrrolidin-3-yl]methoxy]ethoxy)ethyl]-1-[4-([[2-(2-[[(3S)-1-[(4-[[(1S,2S)-6-chloro-4-cyano-2-(dimethylamino)-2,3-dihydro-1H-inden-1-yl]oxy]-3-methylbenzene)sulfonyl]pyrrolidin-3-yl]methoxy]ethoxy)ethyl]carbamoyl]amino)butyl]urea; bis(trifluoroacetic acid)] | C (>70%) | – | C (>70%) | – | < 100 nM | < 100 nM
6 | Cc1cc(S(=O)(=O)N2CC[C@@H](COCCOCCNC(=O)NCCCCNC(=O)NCCOCCOC[C@@H]3CCN(S(=O)(=O)c4ccc(O[C@H]5c6cc(Cl)cc(C#N)c6C[C@@H]5N(C)C)c(C)c4)C3)C2)ccc1O[C@H]1c2cc(Cl)cc(C#N)c2C[C@@H]1N(C)C [Example 47] | C (>70%) | – | C (>70%) | – | – | –
7 | Cc1cc(S(=O)(=O)N2CC[C@H](COc3ccnc(CNC(=O)NCCCCNC(=O)NCc4cc(OC[C@H]5CCN(S(=O)(=O)c6ccc(O[C@H]7c8cc(Cl)cc(Cl)c8C[C@@H]7N(C)C)c(C)c6)C5)ccn4)c3)C2)ccc1O[C@H]1c2cc(Cl)cc(Cl)c2C[C@@H]1N(C)C [Example 48, 3-[(4-[[(3S)-1-[(4-[[(1S,2S)-4,6-Dichloro-2-(dimethylamino)-2,3-dihydro-1H-inden-1-yl]oxy]-3-methylbenzene)sulfonyl]pyrrolidin-3-yl]methoxy]pyridin-2-yl)methyl]-1-[4-([[(4-[[(3S)-1-[(4-[[(1S,2S)-4,6-dichloro-2-(dimethylamino)-2,3-dihydro-1H-inden-1-yl]oxy]-3-methylbenzene)sulfonyl]pyrrolidin-3-yl]methoxy]pyridin-2-yl)methyl]carbamoyl]amino)butyl]urea] | B (40-70%) | – | C (>70%) | – | 100 to 1000 nM | 100 to 1000 nM
8 | Cc1cc(S(=O)(=O)N2CC[C@H](COc3ccnc(CNC(=O)NCCCCNC(=O)NCc4cc(OC[C@H]5CCN(S(=O)(=O)c6ccc(O[C@H]7c8cc(Cl)cc(C#N)c8C[C@@H]7N(C)C)c(C)c6)C5)ccn4)c3)C2)ccc1O[C@H]1c2cc(Cl)cc(C#N)c2C[C@@H]1N(C)C [Example 50] | B (40-70%) | C (NHE3 pIC50 > 7) | B (40-70%) | C (NHE3 pIC50 > 7) | – | –
9 | Cc1cc(S(=O)(=O)N2CC[C@@H](COc3ccnc(CNC(=O)NCCCCNC(=O)NCc4cc(OC[C@@H]5CCN(S(=O)(=O)c6ccc(O[C@H]7c8cc(Cl)cc(C#N)c8C[C@@H]7N(C)C)c(C)c6)C5)ccn4)c3)C2)ccc1O[C@H]1c2cc(Cl)cc(C#N)c2C[C@@H]1N(C)C [Example 51, 3-[(4-[[(3R)-1-[(4-[[(1S,2S)-6-Chloro-4-cyano-2-(dimethylamino)-2,3-dihydro-1H-inden-1-yl]oxy]-3-methylbenzene)sulfonyl]pyrrolidin-3-yl]methoxy]pyridin-2-yl)methyl]-1-[4-([[(4-[[(3R)-1-[(4-[[(1S,2S)-6-chloro-4-cyano-2-(dimethylamino)-2,3-dihydro-1H-inden-1-yl]oxy]-3-methylbenzene)sulfonyl]pyrrolidin-3-yl]methoxy]pyridin-2-yl)methyl]carbamoyl]amino)butyl]urea] | B (40-70%) | C (NHE3 pIC50 > 7) | B (40-70%) | C (NHE3 pIC50 > 7) | – | –
10 | Cc1cc(S(=O)(=O)N[C@H]2CCN(CCOCCNC(=O)NCCCCNC(=O)NCCOCCN3CC[C@H](NS(=O)(=O)c4ccc(O[C@H]5c6cc(Cl)cc(C#N)c6C[C@@H]5N(C)C)c(C)c4)C3)C2)ccc1O[C@H]1c2cc(Cl)cc(C#N)c2C[C@@H]1N(C)C [Example 54, 3-(2-[2-[(3S)-3-[(4-[[(1S,2S)-6-Chloro-4-cyano-2-(dimethylamino)-2,3-dihydro-1H-inden-1-yl]oxy]-3-methylbenzene)sulfonamido]pyrrolidin-1-yl]ethoxy]ethyl)-1-(4-[[(2-[2-[(3S)-3-[(4-[[(1S,2S)-6-chloro-4-cyano-2-(dimethylamino)-2,3-dihydro-1H-inden-1-yl]oxy]-3-methylbenzene)sulfonamido]pyrrolidin-1-yl]ethoxy]ethyl)carbamoyl]amino]butyl)urea] | C (>70%) | – | B (40-70%) | – | < 100 nM | < 100 nM
